# Source: PMC12040169 (PLOS Biology, 2025)
# Assay: in vitro
# Conditions: human, hela cells, % viability
SMILES,"viability at 28.5 h, 10 µM [%]","viability at 28.5 h, 10 µM (bulk resorufin, single well) [%]"
c1cncc(-c2nnc([C@H]3CCN(C4CCOCC4)C3)o2)c1 [CBK289398],93.5,–
COc1ccc(-c2nnc([C@H]3CCN(Cc4cccc(C#N)c4)C3)o2)cc1 [CBK289400],94.8,–
COc1ccc(-c2nnc([C@H]3CCN(Cc4ccccn4)C3)o2)cc1 [CBK289401],93.4,–
CC(=O)N1CCC(N2CC[C@H](c3nnc(C(C)(C)C)o3)C2)CC1 [CBK289404],82.4,–
Cc1ccc(S(=O)(=O)N2CC[C@H](c3nnc(-c4ccccc4)o3)C2)cc1 [CBK289405],111,–
CC(C)(C)c1nnc([C@H]2CCN(C(=O)CCC(=O)O)C2)o1 [CBK289406],96.1,–
CN(C)c1ccc(-c2nnc([C@H]3CCN(C(=O)c4ccccc4)C3)o2)cc1 [CBK289407],85.7,–
COCC(=O)N1CC[C@H](c2nnc(-c3ccc(C)cc3)o2)C1 [CBK289410],114,–
Cc1ccc(-c2nnc([C@H]3CCN(C(=O)NCc4ccccc4)C3)o2)cc1 [CBK289411],93,–
O=C(C1CCCCC1)N1CC[C@H](c2nnc(-c3cccnc3)o2)C1 [CBK289412],103,–
CC(=O)N1CC[C@H](c2nc3cccc(C(N)=O)c3[nH]2)C1 [CBK289415],98.3,–
Cn1c([C@H]2CCN(C(=O)c3cnccn3)C2)nc2ccccc21 [CBK289416],110,–
CC(C)C[C@@H]1N[C@H](C(=O)NC2CCC2)Cc2cn(Cc3nccn3C)c3cccc1c23 [CBK289422],101,–
CC(C)C[C@@H]1N[C@H](C(=O)NC2CC2)Cc2cn(Cc3nccn3C)c3cccc1c23 [CBK289423],108,–
C#CCNC(=O)[C@@H]1Cc2cn(Cc3cc(C)on3)c3cccc(c23)[C@H](CC(C)C)N1 [CBK289426],90.4,–
CC(C)C[C@@H]1N[C@H](C(=O)NCC2CCOCC2)Cc2c[nH]c3cccc1c23 [CBK289427],103,–
C[C@@H]1C(=O)O[C@H]2[C@H]1CC[C@@]1(C)Cc3sc(NC(=O)CCC(=O)O)nc3[C@@H](C)[C@H]21 [CBK289429],98.7,–
C[C@H](C(=O)N1CCCC1)C1CC[C@@]2(C)Cc3sc(NC(=O)C4CC4)nc3[C@@H](C)[C@@H]2[C@H]1O (stereo partly drawn) [CBK289432],103,–
CC(=O)N[C@H]1CC[C@]2(C)CCC([C@H](C)C(=O)NC3CCCC3)[C@H](O)[C@H]2[C@@H]1C (stereo partly drawn) [CBK289436],79.6,–
COC[C@H]1CCCN1C(=O)[C@@H](C)C1CC[C@@]2(C)CC[C@H](NC(C)=O)[C@@H](C)[C@@H]2[C@H]1O (stereo partly drawn) [CBK289438],110,–
CC(=O)N[C@H]1CC[C@]2(C)CCC([C@H](C)C(=O)N3CCCCC3)[C@H](O)[C@H]2[C@@H]1C (stereo partly drawn) [CBK289439],89.4,–
C[C@H]1[C@@H]2[C@@H](O)C([C@H](C)C(=O)N3CCCC3)CC[C@@]2(C)CC[C@@H]1NC(=O)c1ccccc1 (stereo partly drawn) [CBK289441],106,–
CCN(CC)C(=O)[C@@H](C)C1CC[C@@]2(C)CC[C@H](NC(=O)C3CC3)[C@@H](C)[C@@H]2[C@H]1O (stereo partly drawn) [CBK289443],97.5,–
C[C@H]1[C@@H]2[C@@H](O)C([C@H](C)C(=O)NCc3ccccn3)CC[C@@]2(C)CC[C@@H]1NC(=O)C1CC1 (stereo partly drawn) [CBK289445],97.2,–

SMILES,"viability at 28.5 h, 10 µM [%]","viability at 28.5 h, 10 µM (bulk resorufin, single well) [%]"
C[C@H]1[C@@H]2[C@@H](O)C([C@H](C)C(=O)N3CCCC3)CC[C@@]2(C)CC[C@@H]1NC(=O)c1ccncc1 (stereo partly drawn) [CBK289450],94.8,–
COCCC(=O)N[C@H]1CC[C@]2(C)CCC([C@H](C)C(=O)N3CCC(C)CC3)[C@H](O)[C@H]2[C@@H]1C (stereo partly drawn) [CBK289451],103,–
CCNC(=O)N[C@H]1CC[C@]2(C)CCC([C@H](C)C(=O)N3CCCCC3)[C@H](O)[C@H]2[C@@H]1C (stereo partly drawn) [CBK289455],84.7,–
COCCNC(=O)[C@@H](C)C1CC[C@@]2(C)CC[C@H](NS(C)(=O)=O)[C@@H](C)[C@@H]2[C@H]1O (stereo partly drawn) [CBK289457],93.5,–
COC(=O)CO[C@@H]1CO[C@H]2[C@@H]1OC[C@@H]2NC(=S)Nc1ccccc1 [CBK289459],88.3,–
CC(=O)c1ccc(NC(=O)N[C@H]2CO[C@H]3[C@@H]2OC[C@H]3OCC(N)=O)cc1 [CBK289460],117,–
CO[C@@H]1CO[C@H]2[C@@H]1OC[C@@H]2NC(=O)Nc1cccc(C(F)(F)F)c1 [CBK289461],112,–
CO[C@@H]1CO[C@H]2[C@@H]1OC[C@@H]2NC(=O)Nc1ccc(C(C)=O)cc1 [CBK289462],106,–
O=C(Nc1ccccc1)N[C@H]1CO[C@H]2[C@@H]1OC[C@H]2OC(=O)Nc1ccccc1 [CBK289465],89.1,–
C=CCNC(=O)N[C@H]1CO[C@H]2[C@@H]1OC[C@H]2OC(=O)Nc1ccccc1 [CBK289466],115,–
O=C(NC1CCCCC1)O[C@@H]1CO[C@H]2[C@@H]1OC[C@@H]2NS(=O)(=O)Cc1ccccc1 [CBK289467],87.8,–
CS(=O)(=O)N[C@H]1CO[C@H]2[C@@H]1OC[C@H]2OC(=O)Nc1cccc2ccccc12 [CBK289469],89,–
CCNC(=O)O[C@@H]1CO[C@H]2[C@@H]1OC[C@@H]2NC(=O)Nc1ccc(C(C)=O)cc1 [CBK289473],93.5,–
CCNC(=O)O[C@@H]1CO[C@H]2[C@@H]1OC[C@@H]2NS(=O)(=O)c1ccccc1C#N [CBK289474],87.6,–
CC(=O)c1ccc(NC(=O)O[C@@H]2CO[C@H]3[C@@H]2OC[C@@H]3NC(=O)C2CCC2)cc1 [CBK289475],89.3,–
NC(=O)CO[C@@H]1CO[C@H]2[C@@H]1OC[C@@H]2NCc1ccccc1 [CBK289479],112,–
Cc1ccc(S(=O)(=O)N[C@H]2CO[C@H]3[C@@H]2OC[C@@H]3n2nnnc2Oc2ccccc2)cc1 [CBK289485],82.4,–
O=C(N[C@H]1CO[C@H]2[C@@H]1OC[C@@H]2n1nnnc1Oc1ccc(-n2ccnc2)cc1)c1ccco1 [CBK289486],91.9,–
O=C(Nc1ccccc1)N[C@H]1CO[C@H]2[C@@H]1OC[C@H]2OCc1ccccc1 [CBK289488],109,–
COCc1cn([C@H]2CO[C@H]3[C@@H]2OC[C@H]3OC)nn1 [CBK289490],89.9,–
COC(=O)c1cn([C@H]2CO[C@H]3[C@@H]2OC[C@H]3O)nn1 [CBK289491],87.5,–
CN(C)Cc1cn([C@H]2CO[C@H]3[C@@H]2OC[C@@H]3NC(=O)NC2CCCCC2)nn1 [CBK289493],88.9,–
COCc1cn([C@H]2CO[C@H]3[C@@H]2OC[C@@H]3NC(=O)c2ccc(OC)cc2)nn1 [CBK289494],115,–
COC(=O)c1cn([C@H]2CO[C@H]3[C@@H]2OC[C@@H]3NC(=O)C2CCCCC2)nn1 [CBK289496],98.4,–

SMILES,"viability at 28.5 h, 10 µM [%]","viability at 28.5 h, 10 µM (bulk resorufin, single well) [%]"
COC(=O)c1cn([C@H]2CO[C@H]3[C@@H]2OC[C@@H]3NC(=O)NC2CCCCC2)nn1 [CBK289499],82.4,–
COC(=O)c1cn([C@H]2CO[C@H]3[C@@H]2OC[C@@H]3NC(=O)Nc2cccc(C(F)(F)F)c2)nn1 [CBK289501],78.9,–
N[C@H]1CO[C@H]2[C@@H]1OC[C@@H]2n1cc(-c2ccccc2)nn1 [CBK289502],81.6,–
Cc1ccc(C(=O)N[C@H]2CO[C@H]3[C@@H]2OC[C@@H]3n2cc(-c3ccccc3)nn2)cc1 [CBK289504],81.4,–
O=S(=O)(N[C@H]1CO[C@H]2[C@@H]1OC[C@@H]2n1cc(-c2ccccn2)nn1)c1cccs1 [CBK289508],88.7,–
O=C(NC1CCCCC1)N[C@H]1CO[C@H]2[C@@H]1OC[C@@H]2n1cc(CC2CCCCC2)nn1 [CBK289510],75.2,–
c1c(CC2CCCCC2)nnn1[C@H]1CO[C@H]2[C@@H]1OC[C@@H]2NCC1CC1 [CBK289511],99.1,–
O=C(Nc1ccccc1)O[C@@H]1CO[C@H]2[C@@H]1OC[C@@H]2Nc1nccc(-c2cccs2)n1 [CBK289513],97.8,–
O=C(NC1CCCCC1)O[C@@H]1CO[C@H]2[C@@H]1OC[C@@H]2Nc1nccc(-c2cccs2)n1 [CBK289514],87.4,–
CN(C)C(=O)CO[C@@H]1CO[C@H]2[C@@H]1OC[C@@H]2Nc1nccc(-c2cccs2)n1 [CBK289515],109,–
CS(=O)(=O)N[C@H]1CO[C@H]2[C@@H]1OC[C@@H]2Nc1nccc(-c2cccs2)n1 [CBK289519],92,–
CC(C)CNC(=S)N[C@H]1CO[C@H]2[C@@H]1OC[C@@H]2Nc1nccc(C(C)(C)C)n1 [CBK289523],90.9,–
CC(C)(C)c1ccnc(N[C@H]2CO[C@H]3[C@@H]2OC[C@@H]3NCc2ccccn2)n1 [CBK289524],86.6,–
CCNC(=O)N[C@H]1CO[C@H]2[C@@H]1OC[C@@H]2Nc1nccc(-c2ccc(OC)cc2)n1 [CBK289528],89.3,–
COc1ccccc1-c1ccnc(N[C@H]2CO[C@H]3[C@@H]2OC[C@@H]3NC(=O)C2CCCCC2)n1 [CBK289529],94.8,–
CC(C)(C)C(=O)N[C@H]1CO[C@H]2[C@@H]1OC[C@@H]2Nc1nccc(C2CCCC2)n1 [CBK289530],115,–
O=C(NC1CCCCC1)N[C@H]1CO[C@H]2[C@@H]1OC[C@@H]2Nc1nccc(C2CCCC2)n1 [CBK289531],82.7,–
CN(C)C(=O)CO[C@@H]1CO[C@H]2[C@@H]1OC[C@@H]2Nc1nccc(-c2cccc(F)c2)n1 [CBK289533],87.9,–
CC(C)CCN[C@H]1CO[C@H]2[C@@H]1OC[C@@H]2n1nnnc1-c1ccccc1 [CBK289537],88.1,–
CC(C)NC(=O)N[C@H]1CCN2C(=O)N(c3ccc(F)c(Cl)c3)C(=O)[C@@H]2C1 [CBK289540],83.1,–
O=C(N[C@H]1CCN2C(=O)N(CCCl)C(=O)[C@@H]2C1)c1cccs1 [CBK289542],–,90.8
O=C(N[C@H]1CCN2C(=O)N(c3cccc4nsnc34)C(=O)[C@@H]2C1)c1cccs1 [CBK289543],87,–
O=C(N[C@H]1CCN2C(=O)N(c3cccc4nsnc34)C(=O)[C@@H]2C1)c1ccnc(Cl)c1 [CBK289545],91.2,–
CSCC(=O)N[C@H]1CCN2C(=O)N(c3cccc(C(C)=O)c3)C(=O)[C@@H]2C1 [CBK289546],90.6,–
